The values that follow come from paper PMC12427625, “Heterochannels Kv(1.1-1.2)2 and Their Interactions with Pore Blockers” (Cells, 2025).

In assay [1] the target is T1, human heterochannels Kv(1.1-1.2)2 (Homo sapiens, UniProt P16389+Q09470, S369T/S371T).
T1 construct: expressed in transfected cells; host or cells: mouse neuroblastoma Neuro-2a cells transfected with pmKate2-KCNA1-KCNA2
Nature of the assay: Competitive binding of peptide and HgTx-G to Kv(1.1-1.2)2 heterochannels. The note with it: for Kd: Kv(1.1-1.2)2 formed by K-Kv1.1-1.2, competitive displacement of 0.5 nM HgTx-G, complete medium, 1 h, Cheng-Prusoff, mean ± SEM of three independent experiments, read-out: apparent dissociation constant (Kap); for affinity for Kv(1.1-1.2)2 in words: Kv(1.1-1.2)2, competitive binding with HgTx-G; for displacement of HgTx-G: 0.5 nM HgTx-G, 10 nM HgTx1 (Figure 1). The source says: To construct the gene encoding a fluorescent concatenated dimer mKate2-Kv1.1-Kv1.2 (K-Kv1.1-1.2), a cloning strategy was used, in which the C-terminus of the human Kv1.1 α-subunit was fused end-to-end to the N-terminus of the human Kv1.2 α-subunit via a short KL linker that corresponds to the HindIII restriction site. Here, we followed the design of the α-subunit concatemers proposed earlier. The previously obtained plasmids pmKate2-KCNA1 and pmKate2-KCNA2, which coded for mKate2-Kv1.1 (K-Kv1.1) and mKate2-Kv1.2 (K-Kv1.2) fusion proteins, were used for cloning. In these proteins, both human α-subunits Kv1.1 and Kv1.2 are N-terminally tagged with the red fluorescent protein mKate2 and harbor single mutations (S369T in Kv1.1, and S371T in Kv1.2) that improve the surface presentation of the homotetrameric channels. At first, pmKate2-KCNA1stopless was generated by amplification of the KCNA1 gene lacking TAA stop codon in a polymerase chain reaction (PCR) using a pair of oligonucleotide primers Kcna1-f1 (5′-[…]-3′) and Kcna1-Stop-r1 (5′-[…]-3′; BglII and HindIII sites are underlined). The obtained DNA fragment was hydrolyzed by BglII/HindIII restriction endonucleases and cloned into pmKate2-KCNA1 plasmid to substitute KCNA1 for KCNA1stopless. The obtained plasmid pmKate2-KCNA1stopless was further used as a vector to produce the KCNA1-KCNA2 dimer. For this, the KCNA2 gene was amplified in PCR using primers Kcna2-Hind-f1 (5′- […]-3′) and Kcna2-Sal-r1 ([…]-3′; HindIII, SalGI, and PstI sites are underlined; TAA stop codon is marked in bold) and cloned into HindIII/SalI sites of pmKate2-KCNA1stopless. The resulting pmKate2-KCNA1-KCNA2 plasmid encoded K-Kv1.1-1.2.
To analyze the binding of HgTx-G to heterochannels, HgTx-G (0.032–2 nM) was added to cells in the complete medium for 1 h. In the experiments with competitive binding, HgTx-G (0.5 nM) was added to cells, together with the studied peptide ([…]; 1.25–100 nM ChTx; 0.5–20 nM AgTx2, 2–10 nM MeKTx11-1, 0.063–1 nM Ce1, 0.063–1 nM Ce4, or 1 µM ScyTx), and incubated in the complete medium for 1 h.
Confocal microscopy measurements were carried out with the SP2 laser scanning confocal microscope (Leica Microsystems GmbH, Wetzlar, Germany), using the 63× water-immersion objective (HCX PL APO, NA = 1.2). Axial and lateral resolutions were 0.6 and 0.2 µm.
Fluorescence of proteins labeled with mKate2 was excited at 561 nm and detected in the 680–800 nm region. Fluorescence of HgTx-G was excited at 488 nm and recorded in the 495–540 nm region. The fluorescent probes of various cellular organelles were excited at 488 nm and detected in the 495–540 nm region.
Quantitative analysis of HgTx-G interaction with heterochannels was performed following the procedure developed previously. Briefly, confocal images of cells were used to calculate the ratio of the fluorescence intensity of HgTx-G bound to heterochannels to the fluorescence intensity of membrane-embedded heterochannels for each measured cell. This ratio was averaged over a sample of measured cells (20–30 cells) to obtain the Rav value and its standard deviation.
To characterize the affinity of unlabeled peptide for heterochannels, the competitive binding of this peptide and HgTx-G to heterochannels was measured at the constant concentration of HgTx-G (L) and increasing concentration (C) of the peptide. Rav data were calculated, plotted as a function of C, and fitted with the following equation:Rav(C) = Rav0/(1 + C/DC50)(2) where DC50 is the peptide concentration displacing 50% of HgTx-G from the complex with heterochannels, and Rav0 is Rav at C = 0.
Further, the Cheng–Prusoff equation was used to calculate the apparent dissociation constant (Kap) of the complex between the studied peptide and heterochannels:Kap = DC50/(1 + L/Kd)(3)
Three independent experiments were performed, and data on Kap were averaged and presented as mean ± SEM.

Assay [2] deals with Kv1.2. Nature of the assay: Competitive binding, homotetrameric Kv1.2 channel (earlier data). To be noted: Kv1.2 vs Kv1.1 (Table 2).
Assay [3] concerns the target Kv1.1. The note with it: cited from earlier work; for Kd: Kv1.1, ref [34], read-out: Kap. The source says:
(§1) These properties were also similar to those reported by other investigators for the corresponding homotetrameric channels, Kv1.1 and Kv1.2. It was also shown that the Kd of the complexes between HgTx-G, a high-affinity fluorescent ligand for the Kv1.1 and Kv1.2 channels, and ...

Assay [4] deals with Kv1.2. To be noted: cited from earlier work; for Kd: Kv1.2, ref [35], read-out: Kap.
Excerpt: as §1

The test system of assay [5] is Kv1.1. Further details: method as in PMID 9446567. The note with it: HEK-293 cells; ref [14]; cited from earlier work.
For assay [6], the system named is Kv1.2. Further details: method as in PMID 9446567. To be noted: HEK-293 cells; ref [14]; cited from earlier work.
The next assay has as its system Kv1.3. Further details: method as in PMID 9446567. To be noted: HEK-293 cells; ref [14]; cited from earlier work.
For another assay, the system named is Kv1.6. Further details: method as in PMID 9446567. To be noted: HEK-293 cells; ref [14]; cited from earlier work.

The structures appear in SMILES notation. Bridge positions count the residues as written; N and C are the ends. Peptide text beside a SMILES is read from it.

T1 sequence (Q09470 whole entry S369T): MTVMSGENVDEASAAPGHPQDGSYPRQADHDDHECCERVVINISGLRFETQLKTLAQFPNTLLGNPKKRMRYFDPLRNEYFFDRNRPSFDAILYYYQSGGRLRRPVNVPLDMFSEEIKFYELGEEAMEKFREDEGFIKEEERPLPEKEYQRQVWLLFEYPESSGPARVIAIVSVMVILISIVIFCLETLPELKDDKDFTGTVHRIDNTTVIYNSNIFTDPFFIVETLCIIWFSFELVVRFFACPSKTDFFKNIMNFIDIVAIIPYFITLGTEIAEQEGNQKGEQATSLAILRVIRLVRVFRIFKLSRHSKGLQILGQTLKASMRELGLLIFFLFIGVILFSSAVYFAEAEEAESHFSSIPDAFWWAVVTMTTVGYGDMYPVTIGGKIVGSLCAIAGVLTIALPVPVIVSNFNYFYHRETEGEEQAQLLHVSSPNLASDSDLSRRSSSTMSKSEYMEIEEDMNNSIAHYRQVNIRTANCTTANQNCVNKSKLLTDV
T1 sequence (P16389 2-499 S371T): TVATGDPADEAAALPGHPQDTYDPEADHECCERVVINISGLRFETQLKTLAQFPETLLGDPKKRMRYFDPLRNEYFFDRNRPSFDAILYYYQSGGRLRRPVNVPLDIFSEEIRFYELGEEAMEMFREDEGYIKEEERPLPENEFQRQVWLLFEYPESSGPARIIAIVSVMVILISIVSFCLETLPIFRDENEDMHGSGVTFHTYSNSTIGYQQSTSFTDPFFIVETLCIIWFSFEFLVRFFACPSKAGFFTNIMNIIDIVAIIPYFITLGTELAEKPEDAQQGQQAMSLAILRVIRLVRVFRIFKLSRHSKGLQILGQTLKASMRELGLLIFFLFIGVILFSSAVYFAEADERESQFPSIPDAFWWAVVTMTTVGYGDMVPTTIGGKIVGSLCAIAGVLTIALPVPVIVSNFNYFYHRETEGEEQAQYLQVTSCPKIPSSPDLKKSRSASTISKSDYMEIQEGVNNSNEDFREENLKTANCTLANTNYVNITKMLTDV

For the molecule `CC[C@H](C)[C@@H]1NC(=O)[C@@H]2CSSC[C@@H]3NC(=O)[C@H](CCCCN)NC(=O)[C@H](CCCNC(=N)N)NC(=O)[C@H](CC(N)=O)NC(=O)[C@H](CCSC)NC(=O)[C@H](CSSC[C@H](NC(=O)[C@H](CO)NC(=O)[C@@H](NC(=O)[C@H](CC(N)=O)NC(=O)[C@@H](NC(=O)[C@@H]4CCCN4C(=O)[C@@H](NC(=O)CN)C(C)C)[C@@H](C)CC)C(C)C)C(=O)N[C@@H]([C@@H](C)O)C(=O)NCC(=O)N[C@@H](CO)C(=O)N4CCC[C@H]4C(=O)N[C@@H](CCC(N)=O)C(=O)N2)NC(=O)[C@H](CCCCN)NC(=O)CNC(=O)[C@H](Cc2ccccc2)NC(=O)[C@H](CCCNC(=N)N)NC(=O)[C@H](CCSC)NC(=O)CNC(=O)[C@H](C)NC(=O)[C@H](CC(=O)O)NC(=O)[C@H](CCCCN)NC(=O)[C@H](CSSC[C@@H](C(=O)N[C@H](C(=O)N2CCC[C@H]2C(=O)N[C@@H](CCCCN)C(=O)O)[C@@H](C)O)NC(=O)[C@H](Cc2c[nH]cn2)NC3=O)NC(=O)[C@@H]2CCCN2C(=O)[C@H](CCCCN)NC1=O` [AgTx2, agitoxin 2], the Kd in assay [1] came to 0.25 ± 0.05 nM.

Consider `CC[C@H](C)[C@H](NC(=O)[C@@H](NC(=O)[C@@H](N)[C@@H](C)O)C(C)C)C(=O)N[C@@H](CC(N)=O)C(=O)N[C@H](C(=O)N[C@@H](CCCCN)C(=O)N[C@H]1CSSC[C@@H]2NC(=O)[C@H](CCCCN)NC(=O)[C@H](C)NC(=O)CNC(=O)[C@H](C)NC(=O)[C@H](Cc3c[nH]cn3)NC(=O)[C@@H]3CCCN3C(=O)CNC(=O)[C@H](Cc3ccc(O)cc3)NC(=O)[C@H](CC(C)C)NC(=O)[C@H](CC(=O)O)NC(=O)[C@H](CCCCN)NC(=O)[C@@H]3CSSC[C@@H](C(=O)N[C@@H](Cc4ccc(O)cc4)C(=O)N[C@@H](CC(N)=O)C(=O)N[C@@H](CC(N)=O)C(=O)O)NC(=O)[C@H](CCCCN)NC(=O)[C@H](CSSC[C@H](NC(=O)[C@H](CCC(N)=O)NC(=O)[C@H](CCCCN)NC(=O)[C@@H]4CCCN4C(=O)[C@H](CO)NC(=O)[C@H]([C@@H](C)O)NC1=O)C(=O)N[C@@H](CC(C)C)C(=O)N[C@@H](CCCCN)C(=O)N1CCC[C@H]1C(=O)N3)NC(=O)[C@H](CCCCN)NC(=O)CNC(=O)[C@H](CC(N)=O)NC(=O)[C@H](CCSC)NC2=O)C(C)C` [Ce1] (H-TVINVKCTSPKQCLKPCKDLYGPHAGAKCMNGKCKCYNN-OH; disulfide 7-29, 13-34, 17-36; N-terminus and C-terminus assumed), for which the “affinity for Kv(1.1-1.2)2 in words” value in assay [1] is listed as “highest picomolar affinity”. In addition, in the assay with Kv1.2 [2], the “activity against Kv1.2 compared to Kv1.1” value is given as “much higher activity against the Kv1.2 channel than against the Kv1.1 channel”. Moreover, the Kd was 11 ± 5 nM on Kv1.1 [3] and 0.01 ± 0.002 nM on Kv1.2 [4].

As for `CC[C@H](C)[C@@H]1NC(=O)CNC(=O)[C@H](Cc2ccccc2)NC(=O)[C@H](CCC(N)=O)NC(=O)[C@H](C)NC(=O)[C@H](CCCCN)NC(=O)[C@@H]2CSSC[C@@H](C(=O)N[C@@H](Cc3ccc(O)cc3)C(=O)N3CCC[C@H]3C(=O)N[C@@H](Cc3c[nH]cn3)C(=O)O)NC(=O)[C@H](CCCCN)NC(=O)[C@@H]3CSSC[C@H](NC(=O)[C@H](CCC(N)=O)NC(=O)[C@H](CCCCN)NC(=O)[C@@H]4CCCN4C(=O)[C@H](CO)NC(=O)[C@H]([C@@H](C)O)NC(=O)[C@@H](NC(=O)[C@H](CCCCN)NC(=O)[C@@H](NC(=O)[C@H](CC(=O)O)NC(=O)[C@@H](NC(=O)[C@@H](NC(=O)[C@@H](N)[C@@H](C)O)C(C)C)[C@@H](C)CC)C(C)C)CSSC[C@H](NC(=O)[C@H](CCCCN)NC(=O)[C@H](C)NC(=O)CNC(=O)[C@H](C)NC(=O)[C@H](CCCNC(=N)N)NC1=O)C(=O)N[C@@H](CCSC)C(=O)N[C@@H](CC(N)=O)C(=O)NCC(=O)N[C@@H](CCCCN)C(=O)N3)C(=O)N[C@@H](CC(C)C)C(=O)N1CCC[C@H]1C(=O)N1CCC[C@H]1C(=O)N2` [HgTx1, hongotoxin 1] (H-TVIDVKCTSPKQCLPPCKAQFGIRAGAKCMNGKCKCYPH-OH; disulfide 7-29, 13-34, 17-36; N-terminus and C-terminus assumed), the “affinity for Kv(1.1-1.2)2 in words” value in assay [1] is “very high affinity”. Besides, in assay [1] (Kv(1.1-1.2)2, vs Ce1), the “fold lower activity compared to Ce1” value was “approximately threefold”. Further, the values for the Kd (in assay [1]; on Kv1.1 [3]; on Kv1.2 [4]) were 0.04 ± 0.01 nM, 0.03 ± 0.02 nM and 0.02 ± 0.01 nM, respectively. Also, the “displacement of HgTx-G” value in assay [1] (channels formed by K-Kv1.1-1.2) and in assay [1] (channels formed by K-Kv1.2-1.1) was “displaced HgTx-G” in each case. The “displacement of HgTx-G from the complexes” value is given as “displaced” in the assay with Kv1.1 [3] (K-Kv1.1-1.1 and K-Kv1.1, ref [28],[29]); “displaced” in the assay with Kv1.2 [4] (K-Kv1.2-1.2 and K-Kv1.2, ref [28],[29]). Also, the “affinity, 86Rb+ flux inhibition” value in the assay with Kv1.1 [5] is recorded as “subnanomolar”; with Kv1.2 [6] it was “subnanomolar”; in the assay with Kv1.3 it was “subnanomolar”; with Kv1.6, “nanomolar”.
